Results on 17 compounds are retold here after ChEMBL document CHEMBL1681733, “Synthesis and evaluation of [(1R)-1-amino-2-(2,5-difluorophenyl)ethyl]cyclohexanes and 4-[(1R)-1-amino-2-(2,5-difluorophenyl)ethyl]piperidines as DPP-4 inhibitors” (Bioorg Med Chem Lett, 2011).

One data set addresses Dipeptidyl peptidase 9 (Homo sapiens, UniProt Q86TI2). Kind of data set: Inhibition of DPP9.
The target of the next data set is Dipeptidyl peptidase 4 (Homo sapiens, UniProt P27487).
The target of the next data set is Dipeptidyl peptidase 2 (Homo sapiens, UniProt Q9UHL4). Kind of data set: Inhibition of QPP.
The target in a further data set is T1, Prolyl endopeptidase FAP (Homo sapiens, UniProt Q12884).
T1 sequence (Q12884 whole entry): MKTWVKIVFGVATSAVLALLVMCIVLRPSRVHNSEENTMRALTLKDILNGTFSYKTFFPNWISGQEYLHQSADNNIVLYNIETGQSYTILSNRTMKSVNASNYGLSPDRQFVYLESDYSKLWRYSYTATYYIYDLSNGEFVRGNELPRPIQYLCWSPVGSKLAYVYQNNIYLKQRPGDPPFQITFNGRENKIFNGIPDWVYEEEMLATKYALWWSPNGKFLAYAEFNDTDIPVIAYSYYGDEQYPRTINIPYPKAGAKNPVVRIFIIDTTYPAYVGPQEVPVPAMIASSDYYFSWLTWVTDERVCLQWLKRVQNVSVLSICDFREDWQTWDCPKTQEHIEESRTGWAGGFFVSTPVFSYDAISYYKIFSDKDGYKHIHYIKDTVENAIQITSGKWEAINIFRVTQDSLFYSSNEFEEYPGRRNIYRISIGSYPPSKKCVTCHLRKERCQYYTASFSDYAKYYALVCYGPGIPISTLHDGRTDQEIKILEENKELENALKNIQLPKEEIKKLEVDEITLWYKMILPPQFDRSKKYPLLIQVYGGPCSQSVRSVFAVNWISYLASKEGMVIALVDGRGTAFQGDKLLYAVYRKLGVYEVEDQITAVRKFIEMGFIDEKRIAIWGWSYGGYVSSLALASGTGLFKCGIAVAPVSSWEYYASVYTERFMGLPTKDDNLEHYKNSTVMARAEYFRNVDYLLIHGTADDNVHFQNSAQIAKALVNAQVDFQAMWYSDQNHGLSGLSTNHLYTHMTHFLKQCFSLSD
Briefly: Inhibition of FAP.

For a further data set, the target named is Dipeptidyl peptidase 8 (Homo sapiens, UniProt Q6V1X1). Briefly: Inhibition of DPP8.
Data set [1] can be described thus: Oral bioavailability in rat at 2 mg/kg. The conditions noted are these: in vivo. The format is ADME, organism-based.
A short description of data set [2]: Clearance in rat at 1 mg/kg, iv and 2 mg/kg, po. The conditions noted are these: in vivo. Format: ADME, organism-based.
A short description of data set [3]: Cmax in rat at 1 mg/kg, iv and 2 mg/kg, po. Format: ADME, organism-based. The settings on record: in vivo.
Data set [4] can be described thus: Half life in rat at 1 mg/kg, iv and 2 mg/kg, po. Format: ADME, organism-based. The settings on record: in vivo.

Dipeptidyl peptidase 4, sequence (P27487 whole entry): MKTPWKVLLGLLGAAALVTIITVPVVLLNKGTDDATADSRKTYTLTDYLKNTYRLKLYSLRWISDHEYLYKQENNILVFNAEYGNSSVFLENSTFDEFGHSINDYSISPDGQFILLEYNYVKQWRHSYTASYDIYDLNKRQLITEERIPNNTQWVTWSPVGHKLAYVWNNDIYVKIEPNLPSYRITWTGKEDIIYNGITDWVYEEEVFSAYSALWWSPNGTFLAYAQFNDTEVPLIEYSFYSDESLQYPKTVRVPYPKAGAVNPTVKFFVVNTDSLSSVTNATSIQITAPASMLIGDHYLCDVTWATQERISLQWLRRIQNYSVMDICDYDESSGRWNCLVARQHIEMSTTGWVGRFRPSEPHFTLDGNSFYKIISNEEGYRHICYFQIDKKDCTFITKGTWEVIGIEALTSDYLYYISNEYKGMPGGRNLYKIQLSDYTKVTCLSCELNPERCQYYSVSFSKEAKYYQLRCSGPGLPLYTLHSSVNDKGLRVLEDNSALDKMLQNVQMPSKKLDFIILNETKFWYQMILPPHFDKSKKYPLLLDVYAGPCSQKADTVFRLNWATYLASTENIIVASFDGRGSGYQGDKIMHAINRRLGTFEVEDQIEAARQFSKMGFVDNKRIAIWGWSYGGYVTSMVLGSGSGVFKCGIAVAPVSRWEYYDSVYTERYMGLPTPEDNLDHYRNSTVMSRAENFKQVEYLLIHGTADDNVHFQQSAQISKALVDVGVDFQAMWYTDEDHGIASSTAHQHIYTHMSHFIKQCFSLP
Dipeptidyl peptidase 8, sequence (Q6V1X1 whole entry): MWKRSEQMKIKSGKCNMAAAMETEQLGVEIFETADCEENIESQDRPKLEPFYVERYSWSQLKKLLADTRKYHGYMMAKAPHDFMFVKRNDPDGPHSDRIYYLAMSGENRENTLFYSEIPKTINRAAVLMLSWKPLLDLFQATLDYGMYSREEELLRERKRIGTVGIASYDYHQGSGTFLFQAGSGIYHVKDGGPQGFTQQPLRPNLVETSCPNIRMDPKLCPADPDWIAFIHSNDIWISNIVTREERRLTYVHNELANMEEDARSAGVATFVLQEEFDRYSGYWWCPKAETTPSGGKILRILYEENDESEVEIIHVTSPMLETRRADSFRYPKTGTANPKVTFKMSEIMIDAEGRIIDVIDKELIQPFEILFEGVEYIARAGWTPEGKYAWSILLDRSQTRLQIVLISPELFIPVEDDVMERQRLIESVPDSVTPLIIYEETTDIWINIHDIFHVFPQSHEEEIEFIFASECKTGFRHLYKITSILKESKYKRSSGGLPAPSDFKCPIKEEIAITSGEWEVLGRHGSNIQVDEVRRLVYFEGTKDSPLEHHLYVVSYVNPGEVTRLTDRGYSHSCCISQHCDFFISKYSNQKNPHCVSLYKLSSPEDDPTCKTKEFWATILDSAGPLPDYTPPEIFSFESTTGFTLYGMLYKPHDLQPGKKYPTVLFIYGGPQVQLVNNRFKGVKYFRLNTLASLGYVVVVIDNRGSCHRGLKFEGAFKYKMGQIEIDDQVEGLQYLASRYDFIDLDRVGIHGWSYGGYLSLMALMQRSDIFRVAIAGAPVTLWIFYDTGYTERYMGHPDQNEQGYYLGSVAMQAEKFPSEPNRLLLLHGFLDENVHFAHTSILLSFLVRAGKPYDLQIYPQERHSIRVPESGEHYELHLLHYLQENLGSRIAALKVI
Dipeptidyl peptidase 9, sequence (Q86TI2 whole entry): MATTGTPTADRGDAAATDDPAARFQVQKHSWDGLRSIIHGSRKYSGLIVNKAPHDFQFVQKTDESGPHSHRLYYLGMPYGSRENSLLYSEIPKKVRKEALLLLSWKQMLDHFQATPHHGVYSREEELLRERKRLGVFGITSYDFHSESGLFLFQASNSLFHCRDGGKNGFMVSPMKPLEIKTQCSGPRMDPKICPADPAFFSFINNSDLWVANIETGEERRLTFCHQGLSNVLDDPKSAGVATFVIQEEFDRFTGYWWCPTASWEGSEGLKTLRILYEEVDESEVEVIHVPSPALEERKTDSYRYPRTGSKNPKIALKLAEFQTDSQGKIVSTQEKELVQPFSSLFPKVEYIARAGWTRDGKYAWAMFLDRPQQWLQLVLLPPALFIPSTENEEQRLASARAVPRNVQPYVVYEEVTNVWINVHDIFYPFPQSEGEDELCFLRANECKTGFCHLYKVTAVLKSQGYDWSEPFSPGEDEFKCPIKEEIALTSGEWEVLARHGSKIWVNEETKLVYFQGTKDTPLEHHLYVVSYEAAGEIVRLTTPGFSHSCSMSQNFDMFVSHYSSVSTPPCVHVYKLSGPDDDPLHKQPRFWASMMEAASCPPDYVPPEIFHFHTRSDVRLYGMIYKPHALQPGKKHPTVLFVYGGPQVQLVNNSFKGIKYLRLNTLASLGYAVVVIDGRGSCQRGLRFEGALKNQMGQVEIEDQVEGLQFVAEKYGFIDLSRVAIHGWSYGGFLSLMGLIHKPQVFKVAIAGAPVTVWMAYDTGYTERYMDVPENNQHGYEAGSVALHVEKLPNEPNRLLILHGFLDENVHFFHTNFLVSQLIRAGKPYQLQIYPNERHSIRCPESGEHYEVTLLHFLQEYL

Broadly, the IC50 is the concentration that gives 50% inhibition. Regarding `CN([C@H]1CC[C@H]([C@H](N)Cc2cc(F)ccc2F)CC1)S(=O)(=O)c1ccc(OC(F)(F)F)cc1`, the IC50 against Dipeptidyl peptidase 9 is more than 100 µM; at Dipeptidyl peptidase 4 it was 0.4 µM; on Dipeptidyl peptidase 2 it was 29 µM; on Prolyl endopeptidase FAP it was more than 35 µM; at Dipeptidyl peptidase 8, more than 100 µM.
In general, bioavailability refers to the share of a dose that reaches the circulation, judged against a reference dose that is usually intravenous. By Cmax is commonly meant the peak of the concentration-time curve. For `CN([C@H]1CC[C@H]([C@H](N)Cc2cc(F)ccc2F)CC1)S(=O)(=O)c1cccc(C(N)=O)c1`, the bioavailability in [1] worked out at 13%. Besides, in data set [2], the clearance was determined as 204 mL/min/kg. Further, the IC50 on Prolyl endopeptidase FAP is more than 35 µM. This compound also came in with a Cmax in [3] of 19 nM.
In general, half-life refers to the time in which the quantity being followed falls by half. A higher half-life goes with slow loss. `CN([C@H]1CC[C@H]([C@H](N)Cc2cc(F)ccc2F)CC1)S(=O)(=O)c1ccc(-c2csnn2)cc1`: in data set [1], the bioavailability turned out to be 25%. Also, the IC50 against Dipeptidyl peptidase 4 is 0.094 µM; on Dipeptidyl peptidase 2, 8.5 µM; on Prolyl endopeptidase FAP it was more than 35 µM; at Dipeptidyl peptidase 8 it was more than 100 µM. Also, in data set [2], the clearance amounted to 180 mL/min/kg. In data set [4], this compound showed a half-life of 3.5 h. For the same compound, the concentration in data set [3] peaked (Cmax) at 190 nM.
As to `Cc1[nH]ncc1S(=O)(=O)N(C)[C@H]1CC[C@H]([C@H](N)Cc2cc(F)ccc2F)CC1`, the half-maximal inhibitory concentration (IC50) is more than 100 µM at Dipeptidyl peptidase 9, 0.28 µM on Dipeptidyl peptidase 4, 57 µM against Dipeptidyl peptidase 2 and more than 35 µM at Prolyl endopeptidase FAP.
On to `Cn1cnc(S(=O)(=O)N(C)[C@H]2CC[C@H]([C@H](N)Cc3cc(F)ccc3F)CC2)c1`, for which the IC50 against Dipeptidyl peptidase 9 is more than 100 µM; against Dipeptidyl peptidase 4, 0.5 µM; at Dipeptidyl peptidase 2 it was more than 100 µM; against Prolyl endopeptidase FAP it was more than 35 µM; against Dipeptidyl peptidase 8, more than 100 µM.
With `Cc1oncc1S(=O)(=O)N(C)[C@H]1CC[C@H]([C@H](N)Cc2cc(F)ccc2F)CC1`, the IC50 against Dipeptidyl peptidase 9 was more than 100 µM; against Dipeptidyl peptidase 4, 0.17 µM; against Dipeptidyl peptidase 2 it was 43 µM; against Prolyl endopeptidase FAP, more than 35 µM; against Dipeptidyl peptidase 8, more than 100 µM.
In turn, `Cc1noc(C)c1S(=O)(=O)N(C)[C@H]1CC[C@H]([C@H](N)Cc2cc(F)ccc2F)CC1` returned a bioavailability in [1] of 2.2%. Also, the IC50 against Dipeptidyl peptidase 9 is more than 100 µM; against Dipeptidyl peptidase 4, 0.055 µM; on Dipeptidyl peptidase 2 it was 63 µM; at Prolyl endopeptidase FAP, more than 35 µM; against Dipeptidyl peptidase 8, more than 100 µM. This compound also displayed a clearance in data set [2] of 116 mL/min/kg. Also, the half-life in data set [4] was 3 h. In [3], this compound displayed a Cmax of 32 nM.
Regarding `Cc1noc(C)c1S(=O)(=O)N(CCCC(F)(F)F)[C@H]1CC[C@H]([C@H](N)Cc2cc(F)ccc2F)CC1`, the 50% inhibitory concentration (IC50) was more than 100 µM on Dipeptidyl peptidase 9; 0.57 µM at Dipeptidyl peptidase 4; 40 µM at Dipeptidyl peptidase 2; more than 35 µM on Prolyl endopeptidase FAP; more than 100 µM at Dipeptidyl peptidase 8.
With `CS(=O)(=O)N(CCCC(F)(F)F)[C@H]1CC[C@H]([C@H](N)Cc2cc(F)ccc2F)CC1`, the IC50 is more than 100 µM at Dipeptidyl peptidase 9; 2.4 µM on Dipeptidyl peptidase 4; 86 µM on Dipeptidyl peptidase 2; more than 35 µM against Prolyl endopeptidase FAP; more than 100 µM against Dipeptidyl peptidase 8.
As for `CC(=O)N(C)[C@H]1CC[C@H]([C@H](N)Cc2cc(F)ccc2F)CC1`, in data set [1], the bioavailability came out at 9.7%. Also, the IC50 at Dipeptidyl peptidase 4 was 0.12 µM; on Dipeptidyl peptidase 2, 83 µM; at Prolyl endopeptidase FAP it was more than 35 µM. Further, in data set [2], the clearance is 177 mL/min/kg. This compound also gave a half-life in data set [4] of 1 h. The compound further yielded a Cmax in data set [3] of 120 nM.
For the compound `CN(C(=O)CCC(=O)O)[C@H]1CC[C@H]([C@H](N)Cc2cc(F)ccc2F)CC1`, the IC50 against Dipeptidyl peptidase 9 was more than 100 µM; on Dipeptidyl peptidase 4, 0.14 µM; on Dipeptidyl peptidase 2, more than 100 µM; at Prolyl endopeptidase FAP, more than 35 µM; at Dipeptidyl peptidase 8, more than 100 µM.
Take `CCN(C(C)=O)[C@H]1CC[C@H]([C@H](N)Cc2cc(F)ccc2F)CC1`: the IC50 was more than 100 µM on Dipeptidyl peptidase 9; 0.26 µM at Dipeptidyl peptidase 4; more than 100 µM on Dipeptidyl peptidase 2; more than 35 µM against Prolyl endopeptidase FAP; more than 100 µM at Dipeptidyl peptidase 8.
Consider `CC(=O)N(CCCC(F)(F)F)[C@H]1CC[C@H]([C@H](N)Cc2cc(F)ccc2F)CC1`, for which the IC50 on Dipeptidyl peptidase 9 was more than 100 µM; against Dipeptidyl peptidase 4, 0.1 µM; against Dipeptidyl peptidase 2, 51 µM; against Prolyl endopeptidase FAP, more than 35 µM; on Dipeptidyl peptidase 8, more than 100 µM.
`NC(=O)[C@@H]1CCCN([C@H]2CC[C@H]([C@H](N)Cc3cc(F)ccc3F)CC2)C1`: in data set [1], the bioavailability amounted to 24%. The compound further returned a clearance in data set [2] of 201 mL/min/kg. At Prolyl endopeptidase FAP, this compound showed an IC50 of more than 35 µM. In addition, the half-life in data set [4] is 2.1 h. The same compound displayed a Cmax in data set [3] of 24 nM.
For the compound `CC(=O)N1CCC([C@H](N)Cc2cc(F)ccc2F)CC1`, the IC50 against Dipeptidyl peptidase 9 was more than 100 µM; at Dipeptidyl peptidase 4, 0.45 µM; on Dipeptidyl peptidase 2, 66 µM; against Prolyl endopeptidase FAP, more than 35 µM; against Dipeptidyl peptidase 8, more than 100 µM.
As to `Cc1ccc(N2CCC([C@H](N)Cc3cc(F)ccc3F)CC2)c(C)n1`, the bioavailability in [1] is 22%. Besides, the clearance in data set [2] stood at 154 mL/min/kg. The compound further showed a 50% inhibitory concentration (IC50) on Prolyl endopeptidase FAP of more than 35 µM. In [4], this compound gave a half-life of 2.8 h. Moreover, the concentration in data set [3] peaked (Cmax) at 69 nM.
For `N[C@H](Cc1cc(F)ccc1F)C1CCN(c2cncnc2)CC1`, in that order: 4.5%, 171 mL/min/kg, more than 35 µM, 0.92 h and 19 nM.
